The nature of data set [1]: DLS size of dendrimersomes assembled from glycerol-JDs in water at different concentrations. Format: physicochemical. As to conditions: for Dh (nm): size distribution by intensity. Here is the method: Assembly of all eight glycerol-JDs was performed by injection of their ethanol solution (50 μL) into 1 mL of Milli-Q water. The size distribution and structure of resulting DSs were analyzed by DLS (FIG. 84) and cryo-TEM. […] In a certain concentration range the size of DSs increased with the concentration of JDs injected in water or buffer. […] The dimensions of the assemblies were identical when the concentrations of the JDs in water were identical. Sizes of assemblies from mixtures of 1R and 1S in different ratios (1:3, 1:1 and 3:1), were also identical (FIG. 84). […] With the exception of the rotation of polarized light, the physical properties of enantiomers and their racemic mixtures must be identical.
Dynamic light scattering (DLS). Hydrodynamic diameters (Dh) of the self-assemblies of dendrimer molecules and their size distributions were measured on a Malvern Instruments particle sizer (Zetasizer® Nano S, Malvern Instruments, UK) equipped with 4 mW He—Ne laser (633 nm) and avalanche photodiode positioned at […] to the beam and temperature controlled cuvette holder. Experiments were performed at 25° C. in triplicate. The distribution of radius was intensity.

A short description of data set [2]: Cryo-TEM of dendrimersomes from glycerol-JDs, number of vesicle layers. Format: physicochemical. The text has this: The red numbers in FIG. 85 stand for the unilamellar while yellow numbers for multilamellar DSs. The calculated percentages of unilamellar DSs in the selected images for 2R, 2S and 2rac are 91%, 70% and 13%, respectively. Same trend was found for cryo-TEM of 1R, 1S and 1rac (FIG. 86 through FIG. 88). […] Achiral DSs are all unilamellar.
Cryogenic Transmission Electron Microscopy (Cryo-TEM). Morphologies of the Janus Dendrimer assemblies were characterized by cryo-TEM. Images were acquired on a Carl Zeiss Libra 120 microscope. Samples were prepared by plunge freezing of aqueous dispersion on plasma-treated lacey grids. The vitrified specimens were then transferred to a Gatan-910 cryoholder. The 5 images were recorded at −170° C. with an acceleration voltage of 120 kV. The concentration of JD in the aqueous solution of DSs was 1 mg mL-^1.

Data set [3] has as its system HEK293T cells. The experiment in a line: In vitro Luc-mRNA transfection, luciferase luminescence expression in HEK293T cells. Format: cell-based, human. Also on record: unit not given here. As to conditions: CIAJD 4 mg/mL, HEK293T, 125 ng/well. Here is the method: In Vitro Transfection Activity of DNPs in Human Embrionic Kidney (HEK) 293T Cells: HEK293T cells were seeded into 96-well plates (20,000 cells/well/200 μL) and cultured for 24 h at 37° C. in 5% CO2 complete cell culture media. Screening experiments were performed with nonoptimized DNPs containing naked nucleoside-modified mRNA (Karikó, et al., Immunity 2005, 23, 165-175; Pardi, et al., Methods Mol. Biol. 2013, 969, 29-42), of molar mass 664,341 encoding firefly luciferase (mRNA-Luc). A constant concentration of mRNA-Luc of 125 ng/well was used. The transIT (TransIT-mRNA transfection Kit from Mirus Bio) and MC3-based LNPs (MC3: DLin-MC3-DMA, which is the FDA approved LNP for mRNA delivery) were used as positive controls for cell transfection at a concentration of mRNA-Luc of 125 ng/well, identical to that of the tested DNPs. Subsequently cells were cultured for 24 h, the medium was aspirated under reduced pressure by a glass pipette and cells were lysed with 30 μL/well of cell culture lysis reagent (Promega). The luminescence intensity corresponding to the luciferase protein expressed was characterized and analyzed.
In vitro mRNA Delivery: Human embryonic kidney (HEK) 293T cells (American Type Culture Collection) were cultured in Dulbecco's modified Eagle's medium (DMEM) supplemented with 10% inactivated fetal bovine serum (FBS) (Gemini Bio-Products), 2 mM L-glutamine and 100 U/mL penicillin/streptomycin (Life Technologies) (complete medium). For in vitro screening experiments, HEK293T cells were seeded into 96-well plates (20,000 cells/well/200 μL) and cultured for 24 h in at 37° C. and 5% CO2 in complete media. Cell were transfected with IAJDs with encapsulated naked nucleoside-modified mRNA encoding firefly luciferase (mRNA-Luc) with fixed concentration of mRNA-Luc, 125 ng per well. The transIT (TransIT®-mRNA Transfection Kit, Mirus Bio) was used as a positive control for cell transfection, accordingly per manufacturer protocol and added to cells at the concentration of mRNA-Luc, 125 ng per well, the same as for tested particles. Cells were further cultured for 24 h, then medium was aspirated, and cells were lysed with 30 μL/well of cell culture lysis reagent (Promega). For the characterization of luminescence intensity, 2.5 μL of the lysed cells was mixed with 10 μL of luciferase assay substrate and luminescence was analyzed using a MiniLumat LB 9506 luminometer (Berthold/EG&G; Wallac).
Luminescence characterization for in vitro transfection experiments was performed by determining the luminescence intensity for in vitro Luc-mRNA transfection experiments using a MiniLumat LB 9506 luminometer (Berthold/EG&G; Wallac).
For in vitro Luc-mRNA transfection screening experiments, human embryonic kidney 293 cells (HEK 293) were seeded into 96-well plates (20,000 cells/well/200 μL) and cultured for 18-20 hours at 37° C., 5% CO2 in complete Dulbecco's modified Eagle's medium (DMEM) supplemented with 2 mM L-glutamine (Life Technologies), 100 U/mL penicillin/streptomycin (Invitrogen) and 10% fetal bovine serum (FBS, Gemini Bio-Products). Cells were transfected with DNPs with encapsulated naked nucleoside-modified mRNA encoding firefly luciferase (Luc-mRNA) at constant concentration of Luc-mRNA, 125 ng per well. Luc-mRNA complexed with TransIT (TransIT®-mRNA Transfection Kit, Mirus Bio) or encapsulated in FDA approved MC3-based LNPs were used as positive controls for cell transfection, at the concentration of Luc-mRNA of 125 ng per well, the same as for tested DNPs. After transfection cells were further cultured at 37° C., 5% CO2 for 18-20 hours, then medium was aspirated and cells were lysed with luciferase cell culture lysis reagent (30 μL/well) (Promega, Madison, WI). […]

Data set [4] in a line: Dimensions (size, PDI) of DNPs co-assembled from IAJDs and Luc-mRNA by DLS. Format: physicochemical. As to conditions: CIAJD 4 mg/mL. Here is the method:
Dynamic Light Scattering (DLS) for the DNPs was performed in buffer with a Malvern Instruments particle sizer (Zetasizer Nano S, Malvern Instruments, UK) equipped with 4 mW He—Ne laser 633 nm and avalanche photodiode positioned at […] to the beam and temperature-controlled cuvette holder. Instrument parameters were determined automatically along with measurement times.
Formulation of DNPs Containing mRNA-Luc: IAJDs were dissolved in ethanol with various initial concentrations (5-160 mg/mL). Nucleoside-modified mRNA encoding firefly luciferase (mRNA-Luc) was dissolved in water with various initial concentrations (1-4 mg/mL). 12.5 μL of mRNA solution was placed into a clean RNAs free eppendorf (1.5 mL) and mixed with 463 μL of citrate buffer (10 mM, pH 3.0)/acetate buffer (10 mM). For encapsulation of mRNA into IAJDs, 25 μL of IAJDs of the ethanol stock solution was rapidly injected into mRNA solution in citrate or acetate buffer followed by vortex for 5 seconds.
Dynamic Light Scattering (DLS) for the sizes and polydispersities of DNPs was performed on a Malvern Instruments particle sizer (Zetasizer Nano S, Malvern Instruments, UK) equipped with 4 mW He—Ne laser 633 nm and avalanche photodiode positioned at […] to the beam and temperature-controlled cuvette holder. Instrument parameters were determined automatically along with measurement times. Sample solution (0.4 mL) was placed in a semi-micro cuvette (1.6 mL, polystyrene, 10×10×45 mm, manufactured by Greiner Bio-One) and the measurements were performed at 23° C.
Formulation of DNPs obtained by co-assembly of IAJDs and Luc-mRNA was performed as follows. IAJDs were dissolved in ethanol with an initial concentration of 80 mg/mL. Nucleoside-modified mRNA encoding firefly luciferase (Luc-mRNA) was dissolved in UltraPure DNase/RNase-free distilled water with an initial concentration of 4.0 mg/mL. 12.5 μL of Luc-mRNA solution was placed into a clean RNAs free eppendorf (1.5 mL) and 463 μL acetate buffer (10 mM, pH 4.0) was added. Then, 25 μL of IAJD in the ethanol stock solution was rapidly injected into the Luc-mRNA solution in acetate buffer followed by vortex for 5 seconds.
Dynamic Light Scattering (DLS) for the dimensions (sizes and polydispersities) of DNPs was performed on a Malvern Instruments particle sizer (Zetasizer Nano S, Malvern Instruments, UK) equipped with 4 mW He—Ne laser 633 nm and avalanche photodiode positioned at 175° to the beam and temperature-controlled cuvette holder. Instrument parameters were set up automatically along with measurement times. Sample solution (c.a. 0.4 mL) was placed in a semi-micro cuvette (1.6 mL, polystyrene, 10×10×45 mm, Greiner Bio-One) and the measurements were performed at 23° C.
Formulation of DNPs Co-assembled from IAJDs and Luc-mRNA: nucleoside-modified mRNA encoding firefly luciferase (Luc-mRNA) was dissolved in UltraPure DNase/RNase-free distilled water with an initial concentration of 4.0 mg/mL. IAJD molecules were dissolved in ethanol with an initial concentration of 80 mg/mL. 12.5 μL of Luc-mRNA solution was taken and placed into a clean RNAs free eppendorf (1.5 mL). Then 463 μL of acetate buffer (10 mM, pH 4.0) was added. Afterwards, 25 μL of IAJD in the ethanol stock solution was taken and rapidly injected into the above Luc-mRNA solution in acetate buffer followed by vortex for 5 seconds.

Where [5] appears, read: Acetate buffer 10 mM pH 4.0, CLuc-mRNA 0.05 mg/mL.
The mark [6] stands for this setting: Acetate buffer 10 mM pH 5.2, CLuc-mRNA 0.10 mg/mL.
Setting [7] is: Citrate buffer 10 mM pH 3.0, CLuc-mRNA 0.05 mg/mL.

Experimental findings from patent publication US20240252677A1, “ONE-COMPONENT DELIVERY SYSTEM FOR NUCLEIC ACIDS” (The Trustees of the University of Pennsylvania, priority 2021, published 2024) are described below.

As to `CCCCCCCCCCCCOc1cc(OCCCCCCCCCCCC)cc(C(=O)OCC(COC(=O)C(C)(COC(=O)c2cc(OCCOCCOCCOC)c(OCCOCCOCCOC)c(OCCOCCOCCOC)c2)COC(=O)c2cc(OCCOCCOCCOC)c(OCCOCCOCCOC)c(OCCOCCOCCOC)c2)OC(=O)c2cc(OCCCCCCCCCCCC)cc(OCCCCCCCCCCCC)c2)c1` (racemic) [Compound 1rac, (3,5)-12G1-GC-(rac)-BMPA-(3,4,5)-3EO-G1], the PDI in data set [1] (JD 0.025 mg·mL−1 in water) was 0.398; in data set [1] (JD 0.05 mg·mL−1 in water), 0.277; in data set [1] (JD 0.1 mg·mL−1 in water) it was 0.268; in data set [1] (JD 0.15 mg·mL−1 in water), 0.232; in data set [1] (JD 0.2 mg·mL−1 in water) it was 0.216; in data set [1] (JD 0.25 mg·mL−1 in water), 0.238. Moreover, the figures for the PDI in data set [1] (JD 0.3 mg·mL−1 in water), in data set [1] (JD 0.4 mg·mL−1 in water) and in data set [1] (JD 0.5 mg·mL−1 in water) were 0.203, 0.275 and 0.240, respectively. Also, the “Dh (nm)” value came to 86 nm in data set [1] (JD 0.025 mg·mL−1 in water); 109 nm in data set [1] (JD 0.05 mg·mL−1 in water); 123 nm in data set [1] (JD 0.1 mg·mL−1 in water); 128 nm in data set [1] (JD 0.15 mg·mL−1 in water); 136 nm in data set [1] (JD 0.2 mg·mL−1 in water); 142 nm in data set [1] (JD 0.25 mg·mL−1 in water). The “Dh (nm)” value was 153 nm in data set [1] (JD 0.3 mg·mL−1 in water), 174 nm in data set [1] (JD 0.4 mg·mL−1 in water) and 281 nm in data set [1] (JD 0.5 mg·mL−1 in water). The “Number of vesicle layers: 1 (count of vesicles)” value in data set [2] (vesicles with 1 layer) was 7. Further, the “Number of vesicle layers: 2 (count of vesicles)” value in data set [2] (vesicles with 2 layers) worked out at 6. Further, in data set [2] (vesicles with 3 layers), the “Number of vesicle layers: 3 (count of vesicles)” value amounted to 2. For the same molecule, the “Number of vesicle layers: 4 (count of vesicles)” value in data set [2] (vesicles with 4 layers) turned out to be 1. Besides, the “Number of vesicle layers: 5 (count of vesicles)” value in data set [2] (vesicles with 5 layers) is given as 1. Besides, the “Number of vesicle layers: 6 (count of vesicles)” value in data set [2] (vesicles with 6 layers) is recorded as 3.

In the case of “(3,5)-12G2-BMPA-GC-(achiral)-(3,4,5)-3EO-G1 [Compound 4]”, the Luminescence is 3,283 in data set [3] (setting [5]), 1,613 in data set [3] (setting [6]) and 2,063 in data set [3] (setting [7]). Further, the figures for the PDI in data set [4] (setting [5]), in data set [4] (setting [6]) and in data set [4] (setting [7]) were 0.330, 0.284 and 0.460, respectively. Further, the “Size (d, nm)” value in data set [4] (setting [5]) is 58 nm; in data set [4] (setting [6]) it was 178 nm; in data set [4] (setting [7]), 61 nm.
